Common to all, as to type: biochemical
One experiment deals with T1, BTK-WT (Homo sapiens, UniProt Q06187).
T1 construct: purified from insect cells as a full-length construct containing an N-terminal 6X-His tag; His6 (N); made in house; host or cells: insect cells (baculovirus Sf21 in Method B)
Put plainly: Btk in vitro inhibitory activity (one of Method A TR-FRET, Method B electrophoretic mobility shift, Method C radiometric filter binding). The conditions noted are these: D-compounds panel data; read-out: IC50 BTK-WT.

The target of a further experiment is T2, JAK3 (Homo sapiens, UniProt P52333).
T2 sequence (P52333 1-1124): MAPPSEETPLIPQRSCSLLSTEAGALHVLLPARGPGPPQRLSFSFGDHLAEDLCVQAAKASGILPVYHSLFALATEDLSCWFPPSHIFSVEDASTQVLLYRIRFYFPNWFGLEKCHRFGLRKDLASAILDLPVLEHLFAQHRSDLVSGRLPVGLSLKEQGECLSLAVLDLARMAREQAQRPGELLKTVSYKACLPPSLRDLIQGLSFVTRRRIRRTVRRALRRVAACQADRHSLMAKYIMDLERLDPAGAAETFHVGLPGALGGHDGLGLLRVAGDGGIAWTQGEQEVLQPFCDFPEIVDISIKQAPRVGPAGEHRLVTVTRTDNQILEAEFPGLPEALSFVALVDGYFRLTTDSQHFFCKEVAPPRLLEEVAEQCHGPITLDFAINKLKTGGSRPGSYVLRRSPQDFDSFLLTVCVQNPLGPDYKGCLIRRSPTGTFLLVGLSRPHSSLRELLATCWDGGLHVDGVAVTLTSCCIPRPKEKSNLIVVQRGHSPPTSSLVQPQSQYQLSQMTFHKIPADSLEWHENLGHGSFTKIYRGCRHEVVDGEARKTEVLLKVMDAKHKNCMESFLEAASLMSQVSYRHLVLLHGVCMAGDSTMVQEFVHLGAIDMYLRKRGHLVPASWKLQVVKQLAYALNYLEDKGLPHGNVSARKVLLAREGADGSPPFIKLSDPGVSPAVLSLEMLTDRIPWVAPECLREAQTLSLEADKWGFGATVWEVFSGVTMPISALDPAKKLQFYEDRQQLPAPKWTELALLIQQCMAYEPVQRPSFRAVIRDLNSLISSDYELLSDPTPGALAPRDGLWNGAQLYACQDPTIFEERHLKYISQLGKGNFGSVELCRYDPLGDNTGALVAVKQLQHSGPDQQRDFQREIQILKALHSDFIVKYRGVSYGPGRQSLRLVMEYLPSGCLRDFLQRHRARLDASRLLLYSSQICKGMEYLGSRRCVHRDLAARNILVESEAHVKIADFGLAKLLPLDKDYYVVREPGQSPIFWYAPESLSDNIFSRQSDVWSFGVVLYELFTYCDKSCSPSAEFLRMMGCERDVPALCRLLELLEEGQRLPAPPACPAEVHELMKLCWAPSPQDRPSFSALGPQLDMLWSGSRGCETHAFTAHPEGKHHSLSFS
Description: Inhibition of a panel of kinases, in vitro HotSpot kinase assay: JAK3. The conditions noted are these: D-compounds panel data; 1 μM ATP; read-out: IC50 JAK3.

A further experiment concerns the target LCK (Homo sapiens, UniProt P06239). Put plainly: Inhibition of a panel of kinases, in vitro HotSpot kinase assay: LCK. The following applies: D-compounds panel data; 1 μM ATP; read-out: IC50 LCK.
The target of another experiment is EGFR (Homo sapiens, UniProt P00533). Description: Inhibition of a panel of kinases, in vitro HotSpot kinase assay: EGFR. The following applies: D-compounds panel data; 1 μM ATP. As for the experimental part: The degree of inhibition of a panel of kinases is determined using the in vitro HotSpot kinase assay (purified enzymes, ^33P-ATP, an appropriate substrate and 1 μM ATP).

Eight molecules from patent US20210070748A1, “INHIBITORS OF BRUTONS TYROSINE KINASE” (Pharmacyclics LLC, priority 2015, published 2021) can be followed below.

Where only a bound is given, the exact number is not on record here.

T1 sequence (Q06187 whole entry): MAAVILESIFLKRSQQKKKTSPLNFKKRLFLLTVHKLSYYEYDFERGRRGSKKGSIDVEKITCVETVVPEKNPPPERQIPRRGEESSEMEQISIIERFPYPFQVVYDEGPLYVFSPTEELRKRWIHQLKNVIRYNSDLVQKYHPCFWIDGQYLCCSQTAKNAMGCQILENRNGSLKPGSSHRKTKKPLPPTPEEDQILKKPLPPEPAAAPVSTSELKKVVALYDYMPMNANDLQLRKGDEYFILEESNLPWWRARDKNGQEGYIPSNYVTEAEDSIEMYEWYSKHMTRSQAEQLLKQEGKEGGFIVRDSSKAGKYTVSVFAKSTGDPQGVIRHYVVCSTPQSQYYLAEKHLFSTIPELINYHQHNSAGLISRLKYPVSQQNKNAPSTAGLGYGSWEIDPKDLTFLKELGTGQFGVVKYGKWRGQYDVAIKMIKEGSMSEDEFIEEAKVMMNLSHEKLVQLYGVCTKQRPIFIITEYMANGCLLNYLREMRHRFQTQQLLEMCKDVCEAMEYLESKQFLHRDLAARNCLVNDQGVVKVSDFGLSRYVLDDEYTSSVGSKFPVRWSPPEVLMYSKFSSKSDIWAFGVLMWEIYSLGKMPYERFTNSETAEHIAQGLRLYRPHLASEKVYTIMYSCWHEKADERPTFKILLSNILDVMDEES
Chain of LCK (P06239 whole entry): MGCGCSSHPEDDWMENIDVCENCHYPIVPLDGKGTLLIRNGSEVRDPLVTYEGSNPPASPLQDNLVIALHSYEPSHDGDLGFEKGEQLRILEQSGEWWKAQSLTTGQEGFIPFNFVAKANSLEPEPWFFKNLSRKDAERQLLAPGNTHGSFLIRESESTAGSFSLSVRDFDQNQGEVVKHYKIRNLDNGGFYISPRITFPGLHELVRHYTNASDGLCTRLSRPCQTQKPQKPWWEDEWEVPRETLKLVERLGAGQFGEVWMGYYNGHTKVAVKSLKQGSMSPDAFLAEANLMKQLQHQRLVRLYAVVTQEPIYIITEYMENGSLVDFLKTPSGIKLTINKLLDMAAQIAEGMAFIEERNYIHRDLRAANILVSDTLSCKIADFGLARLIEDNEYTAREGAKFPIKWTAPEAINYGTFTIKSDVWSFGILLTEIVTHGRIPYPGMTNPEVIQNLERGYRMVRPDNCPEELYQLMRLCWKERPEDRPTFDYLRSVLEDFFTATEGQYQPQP
Chain of EGFR (P00533 25-1210): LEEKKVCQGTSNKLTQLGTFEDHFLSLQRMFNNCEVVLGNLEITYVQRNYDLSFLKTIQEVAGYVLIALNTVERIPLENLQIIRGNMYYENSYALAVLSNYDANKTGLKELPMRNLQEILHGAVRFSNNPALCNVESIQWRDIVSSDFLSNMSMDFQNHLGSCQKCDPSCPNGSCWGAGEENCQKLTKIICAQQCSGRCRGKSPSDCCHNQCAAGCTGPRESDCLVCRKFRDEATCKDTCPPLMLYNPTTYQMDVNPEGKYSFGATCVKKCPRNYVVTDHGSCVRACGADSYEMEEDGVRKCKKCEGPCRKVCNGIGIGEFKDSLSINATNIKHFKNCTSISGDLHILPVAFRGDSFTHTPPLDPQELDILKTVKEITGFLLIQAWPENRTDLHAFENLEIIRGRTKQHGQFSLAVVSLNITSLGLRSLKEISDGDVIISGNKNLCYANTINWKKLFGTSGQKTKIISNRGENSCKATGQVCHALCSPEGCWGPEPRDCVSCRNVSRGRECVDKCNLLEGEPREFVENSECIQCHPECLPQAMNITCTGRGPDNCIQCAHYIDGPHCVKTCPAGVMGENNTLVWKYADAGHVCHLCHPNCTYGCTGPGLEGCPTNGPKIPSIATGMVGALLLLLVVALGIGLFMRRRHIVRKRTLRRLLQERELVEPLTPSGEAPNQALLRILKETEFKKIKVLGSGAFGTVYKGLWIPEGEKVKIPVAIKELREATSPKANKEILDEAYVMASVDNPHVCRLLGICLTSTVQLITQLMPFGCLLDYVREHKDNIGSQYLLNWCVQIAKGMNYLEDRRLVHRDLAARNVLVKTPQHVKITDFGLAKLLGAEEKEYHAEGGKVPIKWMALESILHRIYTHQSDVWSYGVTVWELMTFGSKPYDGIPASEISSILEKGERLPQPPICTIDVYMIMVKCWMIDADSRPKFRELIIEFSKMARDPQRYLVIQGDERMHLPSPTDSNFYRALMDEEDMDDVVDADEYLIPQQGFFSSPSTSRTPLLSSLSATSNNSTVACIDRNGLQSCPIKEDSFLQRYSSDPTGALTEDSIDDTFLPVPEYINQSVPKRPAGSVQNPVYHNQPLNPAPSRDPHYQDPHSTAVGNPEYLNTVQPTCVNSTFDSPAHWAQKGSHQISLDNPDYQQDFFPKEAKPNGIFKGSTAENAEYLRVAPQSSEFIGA

In general, IC50 refers to the concentration needed to halve the response being measured. As to `C[C@@H]1[C@H](NC(=O)c2cnn(C(C)(C)C)c2)CCCN1c1cnc(C(N)=O)c(Nc2cnn(C)c2)n1` [Example D-57, 5-[(2R,3R)-3-(1-tert-butyl-1H-pyrazole-4-amido)-2-methylpiperidin-1-yl]-3-[(1-methyl-1H-pyrazol-4-yl)amino]pyrazine-2-carboxamide], the IC50 at BTK-WT was at most 10 nM; at JAK3, 1000 to 10000 nM; at LCK, 100 to 1000 nM; at EGFR, 1000 to 10000 nM.

For `Cn1cc(Nc2nc(N3C[C@H](CO)C[C@H](NC(=O)c4ccc(C5CC5)cc4)C3)cnc2C(N)=O)cn1` (racemic) [Example D-43, (racemic)-cis-5-[3-(4-cyclopropylbenzamido)-5-(hydroxymethyl)piperidin-1-yl]-3-[(1-methyl-1H-pyrazol-4-yl)amino]pyrazine-2-carboxamide], the IC50 is at most 10 nM at BTK-WT, 100 to 1000 nM at JAK3, 100 to 1000 nM on LCK and 1000 to 10000 nM against EGFR.

With `CC(C)n1ccc(C(=O)N[C@@H]2CCCN(c3cnc(C(N)=O)c(Nc4cnn(C)c4)n3)[C@@H]2C)cc1=O` [Example D-35, 3-[(1-methyl-1H-pyrazol-4-yl)amino]-5-[(2R,3R)-2-methyl-3-[2-oxo-1-(propan-2-yl)-1,2-dihydropyridine-4-amido]piperidin-1-yl]pyrazine-2-carboxamide], the IC50 was at most 10 nM on BTK-WT, 100 to 1000 nM on JAK3, 100 to 1000 nM at LCK and 1000 to 10000 nM against EGFR.

Consider `Cc1ncc(Nc2nc(N3CCC[C@@H](NC(=O)c4ccc(C5CC5)cc4F)C3)cnc2C(N)=O)s1` [Example D-4, 5-[(3R)-3-(4-cyclopropyl-2-fluorobenzamido)piperidin-1-yl]-3-[(2-methyl-1,3-thiazol-5-yl)amino]pyrazine-2-carboxamide], for which the IC50 on BTK-WT is 10 to 100 nM; at JAK3, 1000 to 10000 nM; on LCK, over 10000 nM; at EGFR, over 10000 nM.

For the molecule `C[C@@H]1[C@H](NC(=O)c2ccc(C(C)(C)N)cc2)CCCN1c1cnc(C(N)=O)c(Nc2cnn(C)c2)n1` [Example D-51, 5-[(2R,3R)-3-[4-(2-aminopropan-2-yl)benzamido]-2-methylpiperidin-1-yl]-3-[(1-methyl-1H-pyrazol-4-yl)amino]pyrazine-2-carboxamide], the IC50 is at most 10 nM at BTK-WT, 100 to 1000 nM at JAK3, 10 to 100 nM on LCK and 100 to 1000 nM at EGFR.

Consider `C[C@@H]1[C@H](NC(=O)c2ccc(C(C)(C)O)nc2)CCCN1c1nnc(C(N)=O)c(Nc2cnn(C)c2)n1` [Example D-41, 3-[(2R,3R)-3-[6-(2-hydroxypropan-2-yl)pyridine-3-amido]-2-methylpiperidin-1-yl]-5-[(1-methyl-1H-pyrazol-4-yl)amino]-1,2,4-triazine-6-carboxamide], for which the IC50 is at most 10 nM at BTK-WT, 100 to 1000 nM on JAK3, 10 to 100 nM at LCK and 1000 to 10000 nM on EGFR.

On to `C[C@@H]1[C@H](NC(=O)c2ccc(-c3ncccn3)cc2)CCCN1c1cnc(C(N)=O)c(Nc2cnn(C)c2)n1` [Example D-85, 3-[(1-methyl-1H-pyrazol-4-yl)amino]-5-[(2R,3R)-2-methyl-3-[4-(pyrimidin-2-yl)benzamido]piperidin-1-yl]pyrazine-2-carboxamide], for which the IC50 on BTK-WT is at most 10 nM; on JAK3, 100 to 1000 nM; at LCK, 100 to 1000 nM; against EGFR it was 100 to 1000 nM.

Turning to `Cc1cc(Nc2nc(N3C[C@H](NC(=O)c4ccc(C5CC5)cc4F)CC[C@H]3C)cnc2C(N)=O)sn1` [Example D-79, 5-[(2R,5R)-5-(4-cyclopropyl-2-fluorobenzamido)-2-methylpiperidin-1-yl]-3-[(3-methyl-1,2-thiazol-5-yl)amino]pyrazine-2-carboxamide], the IC50 lay in the range of 100 to 1000 nM on BTK-WT, 1000 to 10000 nM at JAK3, 1000 to 10000 nM on LCK and 1000 to 10000 nM on EGFR.
